Test results as given in patent EP0726263A2, “Herbicidal (1,3,4)oxadiazoles and thiadiazoles” (American Cyanamid Company, priority 1995, dated 1996).

Tests used:
Format in all cases: in vivo
[1] = system: Stellaria media; test: Herbicidal activity, preemergence test; details: pre; sprayed onto soil, 800 g of active material per hectare; evaluated 3 weeks after treatment
Procedure: (§1) To evaluate their herbicidal activity, compounds according to the invention are tested using a representative range of plants: TRZAW Triticum aestivum HORVW Hordeum vulgare ZEAMX Zea mays GOSHI Gossypium hirsutum HELAN Helianthus annuus GLYMA Glycine max ALOMY Alopecurus myosuroides SETVI Setaria viridis ECHCG Echinochloa crus-galli GALAP Galium aparine STEME Stellaria media VERPE Veronica persica VIOAR Viola arvensis IPOHE Ipomoea hederacea LAMPU Lamium purpureum PAPRH Papaver rhoeas MATIN Matricaria inodora AMARE Amaranthus retroflexus ABUTH Abutilon theophrasti AMBEL Ambrosia artemisifolia CHEAL Chenopodium album
(§2) The tests fall into two categories, preemergence and postemergence. The preemergence tests involve spraying a liquid formulation of the compound onto the soil in which the seeds have recently been sown. The postemergence tests involve spraying a liquid formulation of the compound onto seedling plants.
(§3) The soil used in the tests is a prepared horticultural loam.
(§4) The formulations used in the tests are prepared from solutions of the test compounds in acetone containing 0.4% by weight of an alkylphenol/ethylene oxide condensate available under the trade mark TRITON X-155. These acetone solutions are diluted with water and the resulting formulations applied at dosage levels corresponding to 800 g of active material per hectare in a volume equivalent to 900 litres per hectare.
(§5) In the preemergence tests untreated sown soil and in the postemergence tests untreated soil bearing seedling plants are used as controls.
(§6) Results of herbicide evaluation are expressed on a rating scale (0-9). The scale is based upon a visual observation of plant stand, vigor, malformation, size, chlorosis, and general plant appearance as compared to a control. Preemergence and postemergence treatments are evaluated at 3 and 2 weeks after treatment, respectively.

[2] = system: Galium aparine; test: Herbicidal activity, preemergence test; details: pre; sprayed onto soil, 800 g of active material per hectare; evaluated 3 weeks after treatment
Procedure: as §1, §2, §3, §4, §5, §6

[3] = system: Glycine max; test: Herbicidal activity, preemergence test; details: pre; sprayed onto soil, 800 g of active material per hectare; evaluated 3 weeks after treatment
Procedure: as §1, §2, §3, §4, §5, §6

[4] = system: Chenopodium album; test: Herbicidal activity, preemergence test; details: pre; sprayed onto soil, 800 g of active material per hectare; evaluated 3 weeks after treatment
Procedure: as §1, §2, §3, §4, §5, §6

[5] = system: Veronica persica; test: Herbicidal activity, preemergence test; details: pre; sprayed onto soil, 800 g of active material per hectare; evaluated 3 weeks after treatment
Procedure: as §1, §2, §3, §4, §5, §6

[6] = system: Lamium purpureum; test: Herbicidal activity, preemergence test; details: pre; sprayed onto soil, 800 g of active material per hectare; evaluated 3 weeks after treatment
Procedure: as §1, §2, §3, §4, §5, §6

[7] = system: Matricaria inodora; test: Herbicidal activity, preemergence test; details: pre; sprayed onto soil, 800 g of active material per hectare; evaluated 3 weeks after treatment
Procedure: as §1, §2, §3, §4, §5, §6

[8] = system: Zea mays; test: Herbicidal activity, preemergence test; details: pre; sprayed onto soil, 800 g of active material per hectare; evaluated 3 weeks after treatment
Procedure: as §1, §2, §3, §4, §5, §6

[9] = system: Hordeum vulgare; test: Herbicidal activity, preemergence test; details: pre; sprayed onto soil, 800 g of active material per hectare; evaluated 3 weeks after treatment
Procedure: as §1, §2, §3, §4, §5, §6

[10] = system: Gossypium hirsutum; test: Herbicidal activity, preemergence test; details: pre; sprayed onto soil, 800 g of active material per hectare; evaluated 3 weeks after treatment
Procedure: as §1, §2, §3, §4, §5, §6

[11] = system: Setaria viridis; test: Herbicidal activity, preemergence test; details: pre; sprayed onto soil, 800 g of active material per hectare; evaluated 3 weeks after treatment
Procedure: as §1, §2, §3, §4, §5, §6

[12] = system: Triticum aestivum; test: Herbicidal activity, preemergence test; details: pre; sprayed onto soil, 800 g of active material per hectare; evaluated 3 weeks after treatment
Procedure: as §1, §2, §3, §4, §5, §6

[13] = system: Ambrosia artemisifolia; test: Herbicidal activity, preemergence test; details: pre; sprayed onto soil, 800 g of active material per hectare; evaluated 3 weeks after treatment
Procedure: as §1, §2, §3, §4, §5, §6

[14] = system: Ipomoea hederacea; test: Herbicidal activity, preemergence test; details: pre; sprayed onto soil, 800 g of active material per hectare; evaluated 3 weeks after treatment
Procedure: as §1, §2, §3, §4, §5, §6

[15] = system: Papaver rhoeas; test: Herbicidal activity, preemergence test; details: pre; sprayed onto soil, 800 g of active material per hectare; evaluated 3 weeks after treatment
Procedure: as §1, §2, §3, §4, §5, §6

[16] = system: Alopecurus myosuroides; test: Herbicidal activity, preemergence test; details: pre; sprayed onto soil, 800 g of active material per hectare; evaluated 3 weeks after treatment
Procedure: as §1, §2, §3, §4, §5, §6

[17] = system: Abutilon theophrasti; test: Herbicidal activity, preemergence test; details: pre; sprayed onto soil, 800 g of active material per hectare; evaluated 3 weeks after treatment
Procedure: as §1, §2, §3, §4, §5, §6

[18] = system: Amaranthus retroflexus; test: Herbicidal activity, preemergence test; details: pre; sprayed onto soil, 800 g of active material per hectare; evaluated 3 weeks after treatment
Procedure: as §1, §2, §3, §4, §5, §6

[19] = system: Stellaria media; test: Herbicidal activity, postemergence test; details: post; sprayed onto seedling plants, 800 g of active material per hectare; evaluated 2 weeks after treatment
Procedure: as §1, §2, §3, §4, §5, §6

[20] = system: Galium aparine; test: Herbicidal activity, postemergence test; details: post; sprayed onto seedling plants, 800 g of active material per hectare; evaluated 2 weeks after treatment
Procedure: as §1, §2, §3, §4, §5, §6

[21] = system: Glycine max; test: Herbicidal activity, postemergence test; details: post; sprayed onto seedling plants, 800 g of active material per hectare; evaluated 2 weeks after treatment
Procedure: as §1, §2, §3, §4, §5, §6

[22] = system: Chenopodium album; test: Herbicidal activity, postemergence test; details: post; sprayed onto seedling plants, 800 g of active material per hectare; evaluated 2 weeks after treatment
Procedure: as §1, §2, §3, §4, §5, §6

[23] = system: Veronica persica; test: Herbicidal activity, postemergence test; details: post; sprayed onto seedling plants, 800 g of active material per hectare; evaluated 2 weeks after treatment
Procedure: as §1, §2, §3, §4, §5, §6

[24] = system: Lamium purpureum; test: Herbicidal activity, postemergence test; details: post; sprayed onto seedling plants, 800 g of active material per hectare; evaluated 2 weeks after treatment
Procedure: as §1, §2, §3, §4, §5, §6

[25] = system: Matricaria inodora; test: Herbicidal activity, postemergence test; details: post; sprayed onto seedling plants, 800 g of active material per hectare; evaluated 2 weeks after treatment
Procedure: as §1, §2, §3, §4, §5, §6

[26] = system: Zea mays; test: Herbicidal activity, postemergence test; details: post; sprayed onto seedling plants, 800 g of active material per hectare; evaluated 2 weeks after treatment
Procedure: as §1, §2, §3, §4, §5, §6

[27] = system: Hordeum vulgare; test: Herbicidal activity, postemergence test; details: post; sprayed onto seedling plants, 800 g of active material per hectare; evaluated 2 weeks after treatment
Procedure: as §1, §2, §3, §4, §5, §6

[28] = system: Gossypium hirsutum; test: Herbicidal activity, postemergence test; details: post; sprayed onto seedling plants, 800 g of active material per hectare; evaluated 2 weeks after treatment
Procedure: as §1, §2, §3, §4, §5, §6

[29] = system: Setaria viridis; test: Herbicidal activity, postemergence test; details: post; sprayed onto seedling plants, 800 g of active material per hectare; evaluated 2 weeks after treatment
Procedure: as §1, §2, §3, §4, §5, §6

[30] = system: Triticum aestivum; test: Herbicidal activity, postemergence test; details: post; sprayed onto seedling plants, 800 g of active material per hectare; evaluated 2 weeks after treatment
Procedure: as §1, §2, §3, §4, §5, §6

[31] = system: Ambrosia artemisifolia; test: Herbicidal activity, postemergence test; details: post; sprayed onto seedling plants, 800 g of active material per hectare; evaluated 2 weeks after treatment
Procedure: as §1, §2, §3, §4, §5, §6

[32] = system: Ipomoea hederacea; test: Herbicidal activity, postemergence test; details: post; sprayed onto seedling plants, 800 g of active material per hectare; evaluated 2 weeks after treatment
Procedure: as §1, §2, §3, §4, §5, §6

[33] = system: Papaver rhoeas; test: Herbicidal activity, postemergence test; details: post; sprayed onto seedling plants, 800 g of active material per hectare; evaluated 2 weeks after treatment
Procedure: as §1, §2, §3, §4, §5, §6

[34] = system: Alopecurus myosuroides; test: Herbicidal activity, postemergence test; details: post; sprayed onto seedling plants, 800 g of active material per hectare; evaluated 2 weeks after treatment
Procedure: as §1, §2, §3, §4, §5, §6

[35] = system: Abutilon theophrasti; test: Herbicidal activity, postemergence test; details: post; sprayed onto seedling plants, 800 g of active material per hectare; evaluated 2 weeks after treatment
Procedure: as §1, §2, §3, §4, §5, §6

[36] = system: Amaranthus retroflexus; test: Herbicidal activity, postemergence test; details: post; sprayed onto seedling plants, 800 g of active material per hectare; evaluated 2 weeks after treatment
Procedure: as §1, §2, §3, §4, §5, §6

`C[C@H](NC(=O)c1nnc(-c2ccccc2F)o1)c1ccccc1` [Example 10] was tested, and the “STEME control rating (0-9)” value [1] was 9 (complete kill), the “GALAP control rating (0-9)” value [2] was 0 (no effect) and the “GLXMA control rating (0-9)” value [3] was 2 (slight effect). The “CHEAL control rating (0-9)” value [4] was 8 (approaching complete kill), the “VERPE control rating (0-9)” value [5] was 9 (complete kill) and the “LAMPU control rating (0-9)” value [6] was 8 (approaching complete kill). The “MATIN control rating (0-9)” value [7] was 8 (approaching complete kill), the “ZEAMX control rating (0-9)” value [8] was 0 (no effect) and the “HORVW control rating (0-9)” value [9] was 0 (no effect). The “GOSHI control rating (0-9)” value [10] was 0 (no effect), the “SETVI control rating (0-9)” value [11] was 3 (moderate effect) and the “TRZAW control rating (0-9)” value [12] was 0 (no effect). For the same molecule, the “AMBEL control rating (0-9)” value [13] was 3 (moderate effect), the “IPOHE control rating (0-9)” value [14] was 0 (no effect) and the “PAPRH control rating (0-9)” value [15] was 9 (complete kill). For the same molecule, the “ALOMY control rating (0-9)” value [16] was 1 (trace effect), the “ABUTH control rating (0-9)” value [17] was 0 (no effect) and the “AMARE control rating (0-9)” value [18] was 8 (approaching complete kill). The “STEME control rating (0-9)” value [19] was 9 (complete kill), the “GALAP control rating (0-9)” value [20] was 6 (herbicidal effect) and the “GLXMA control rating (0-9)” value [21] was 4 (injury). For the same molecule, the “CHEAL control rating (0-9)” value [22] was 7 (good herbicidal effect), the “VERPE control rating (0-9)” value [23] was 9 (complete kill) and the “LAMPU control rating (0-9)” value [24] was 8 (approaching complete kill). For the same molecule, the “MATIN control rating (0-9)” value [25] was 0 (no effect), the “ZEAMX control rating (0-9)” value [26] was 3 (moderate effect) and the “HORVW control rating (0-9)” value [27] was 4 (injury). For the same molecule, the “GOSHI control rating (0-9)” value [28] was 8 (approaching complete kill), the “SETVI control rating (0-9)” value [29] was 9 (complete kill) and the “TRZAW control rating (0-9)” value [30] was 2 (slight effect). For the same molecule, the “AMBEL control rating (0-9)” value [31] was 7 (good herbicidal effect), the “IPOHE control rating (0-9)” value [32] was 8 (approaching complete kill) and the “PAPRH control rating (0-9)” value [33] was 8 (approaching complete kill). For the same molecule, the “ALOMY control rating (0-9)” value [34] was 0 (no effect), the “ABUTH control rating (0-9)” value [35] was 9 (complete kill) and the “AMARE control rating (0-9)” value [36] was 9 (complete kill).
